According to US11639345B2, “Methionine metabolic pathway inhibitors” (MIGAL—GALILEE RESEARCH INSTITUTE LTD., priority 2018, dated 2023):

Legend:
[1] = biological target: T1, CGS from Nicotiana tabacum (Nicotiana tabacum, UniProt Q9ZPL5); conditions: Steegborn et al. (2001); cited from earlier work
T1 sequence (Q9ZPL5 96-540 limits assumed): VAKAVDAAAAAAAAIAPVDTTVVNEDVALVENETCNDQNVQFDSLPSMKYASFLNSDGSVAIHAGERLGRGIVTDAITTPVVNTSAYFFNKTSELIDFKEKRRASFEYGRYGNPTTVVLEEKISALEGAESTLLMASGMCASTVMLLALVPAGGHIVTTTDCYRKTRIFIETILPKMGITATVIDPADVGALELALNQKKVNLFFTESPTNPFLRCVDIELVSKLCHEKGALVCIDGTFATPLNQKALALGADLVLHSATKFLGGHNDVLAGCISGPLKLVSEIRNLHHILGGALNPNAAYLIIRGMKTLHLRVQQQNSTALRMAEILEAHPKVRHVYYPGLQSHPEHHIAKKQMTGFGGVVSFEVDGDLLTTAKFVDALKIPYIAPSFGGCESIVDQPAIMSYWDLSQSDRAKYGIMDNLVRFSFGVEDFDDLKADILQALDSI

Arabidopsis thaliana = Arabidopsis thaliana root growth inhibition; format: in vivo; conditions: 168 h, root length ratio vs DMSO control, 50 μM compound, lower values indicate shorter root, larger effect, read-out: Arabidopsis (relative to DMSO)
Procedure: Finally, FIGS. 7a-7o are the photos of the Arabidopsis thaliana plants and the inhibition of their roots growth by the compounds of the present invention. These experiments were conducted as follows. Seeds were washed with 70% ethanol for one minute and then with sterile water. Sterilisation was performed with 50% bleaching solution (3%) and 0.2% Triton x-100 for ten minutes followed by a five-time wash with sterile water. The seeds were placed in six well-plates with half Murashige and Skoog medium (MS; Duchefa, Haarlem, Netherlands), containing 1% sucrose (w/v), pH 5.8. The plates with Arabidopsis thaliana seeds were placed at 4° C. for two days and then transferred for seven days to growth chamber (22±2° C.) at day/light cycles of 16/8 h. The plates were placed vertically. In each plate, a control including 0.1% DMSO in the medium was added. The compounds of the present invention were tested for their herbicidal efficiency by diluting 1000 times a 50 mM stock in DMSO leading to a final concentration of 50 μM with 0.1% DMSO.
In Tables 1, 2 and 4 above, Arabidopsis root length was measured after addition of 50-μM compound compared with the negative control (DMSO) treatment. Length values indicate the ratio between non-treated plates ([…]) and the length after the addition of 50 uM of each compound. Lower values indicate shorter root length, and consequently, larger effect.

[2] = test system: E. coli lacking the endogenic MetB CGS gene, transformed to express the CGS from Arabidopsis; assay: Growth of engineered E. coli expressing Arabidopsis CGS in M9 minimal media, with and without methionine; format: cell-based; conditions: for E. coli Assay LE395 (0-5): score 0-5, growth of E. coli with Arabidopsis CGS gene in M9 minimal media; for E. coli specificity (MOA): score, growth with vs without external methionine (40 mg/L)
Procedure: In addition to the direct binding evaluation, specific assay to test the compounds activity and specificity were also developed. In this assay, E. coli cells, lacking the endogenic MetB CGS gene and transformed to express the CGS from Arabidopsis, were used. These cells were grown on M9 minimal media with and without external methionine supplemented to the cells, in the presence of the compounds of the embodiments. These selected compounds of the embodiments, capable of inhibiting the cell growth on M9, but incapable of affecting the cell growth when supplemented with methionine, were validated as methionine-pathway specific inhibitors.
In this assay, Methionine auxotroph E. coli mutant was transformed with PQE-30 vector containing the Arabidopsis CGS gene as previously described in Yael Hacham et al., Plant Physiol., February 2002, 128(2): 454-462. In order to test the effect of the small molecule inhibitors on the CGS and methionine pathway, growth curves of the E. coli in M9 minimal media with […] were measured with and without the addition of external methionine (40 mg/L) in the presence of variable compound concentrations. E. coli growth curves were measured by following the optical density at 600 nm of bacteria in 96 well-plate placed within Tecan M200 plate reader in orbital shaking mode at 37° C. The slope of each curve was estimated using the ‘linest’ function in Excel.

Roquette = Roquette assay spray; format: in vivo
Tobacco CGS [3] = biological target: T2, Tobacco CGS (Nicotiana tabacum, UniProt Q9ZPL5); assay: Malachite Green Phosphate assay of direct CGS activity; format: biochemical; design: 6xHIS (cleaved yes); GB1 solubility tag (cleaved yes); made in house; host or cells: E. coli BL-21; conditions: 2 h; 50 μM compound, 1 μM CGS, two-hour incubation at 25° C.; read-out: Malachite Green Phosphate Assay (% to DMSO, 50 μM)
T2 sequence (Q9ZPL5 79-540): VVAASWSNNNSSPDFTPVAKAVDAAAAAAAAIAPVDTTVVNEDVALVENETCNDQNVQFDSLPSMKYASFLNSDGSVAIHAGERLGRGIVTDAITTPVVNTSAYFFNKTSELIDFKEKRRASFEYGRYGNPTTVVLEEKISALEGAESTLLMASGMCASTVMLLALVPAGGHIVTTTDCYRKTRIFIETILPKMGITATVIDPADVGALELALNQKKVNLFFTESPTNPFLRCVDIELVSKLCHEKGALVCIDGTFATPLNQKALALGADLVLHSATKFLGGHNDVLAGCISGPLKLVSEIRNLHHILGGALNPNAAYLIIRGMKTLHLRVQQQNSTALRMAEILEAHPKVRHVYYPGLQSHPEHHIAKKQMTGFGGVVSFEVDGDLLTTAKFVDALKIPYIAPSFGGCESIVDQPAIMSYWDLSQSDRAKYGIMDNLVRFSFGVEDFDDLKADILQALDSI
Procedure: As discussed above, the first reaction in methionine biosynthesis in plants is catalyzed by the CGS enzyme. In this reaction, the formation of cystathionine is conducted by the γ-replacement of the phosphoryl substituent of O-phospho-homoserine by cysteine and consecutive release of an orthophosphate group.
Expression of recombinant CGS was done by transforming the pET-11 vector containing the DNA sequence of Tobacco CGS with a 6xHIS tag and GB1 solubility tag followed by TEV cleavage site into BL-21 cells. These cells were cultured at 37° C. and optical density (OD)=0.8 protein at 600 nm, and the expression was induced by addition of 1 mM IPTG for 16 hours at 25° C. The protein was purified to homogeneity onto nickel column and cleaved by o/n dialysis with the TEV protease. A second nickel column was used to separate the cleaved CGS from the TEV and GB1 solubility tag.
The direct activity of CGS was tested using the Malachite Green Phosphate Assay Kit (Sigma-Aldrich, cat # MAK307-1KT). It is a highly sensitive and robust experiment used to measure the release of free orthophosphate group based on quantification of the green-coloured complex formed between Malachite Green, molybdate, and free orthophosphate. The rapid colour formation from the reaction can be conveniently measured on a spectrophotometer via the absorbance at 620 nm.
The assay mixture (100 μl) contained 50 mM MOPS—NaOH (pH 7.5), 150 mM NaCl, 0.1 mM PLP and 1 μM purified CGS. The compounds of the present invention were added at a final concentration of 50 μM and reactions were initiated by adding 2 mM cysteine and 3 mM O-phospho-L-homo-serine. After two-hour incubation at 25° C., 80 μL of each sample were transferred into a new 96 well-plate containing 20 μl of Malachite Green Reagent and incubated for additional 30 min at 25° C. Colour development was measured by a plate reader Tecan M200 (620 nm).

Tobacco CGS [4] = biological target: T2, Tobacco CGS; assay: Micro Scale Thermophoresis (MST) direct binding to CGS; design: 6xHIS (N, cleaved yes); GB1 solubility tag (N, cleaved yes); made in house; host or cells: E. coli BL21; conditions: score 0-5; binding to labelled Tobacco CGS
Procedure: The direct binding of the compounds of the embodiments to the CGS was tested by Micro Scale Thermophoresis (MST). In the MST assay, the CGS protein was labelled with a fluorophore, the samples were heated, and changes in fluorescence were measured as a function of the ligand concentration. In the MST assay, similar to the expression and purification described above, the recombinant Tobacco CGS protein was expressed in E. coli BL21 cells and purified to homogeneity. For that particular purpose, the pET-11 vector containing the DNA sequence of Tobacco CGS with an N-terminus […] tag followed by a TEV-cleavable GB1 solubility tag was cloned and transformed into the bacteria cells. Cells were cultured to OD=0.8, and protein expression was induced by the addition of 1 mM IPTG. The cells were cultured for additional 16 hours temperature 25° C. Following cellular lysis, the soluble fraction was passed through the nickel column and the bound HIS-tagged protein was eluted by 300 mM imidazole. Then, the tags […] and GB1 were cleaved in dialysis o/n and the mixtures passed again through the nickel column to separate the CGS from the TEV and HIS-GB1 constructs. As a final step the CGS was run on S75 size exclusion chromatography. Thus, the MST assay was performed to measure the biding of the compounds to the CGS protein. For this purpose, the CGS was labelled with commercially available amine reactive fluorophore (Cat # MO-[…], NanoTemper) according to the manufacture instructions. The MST binding curves were then measured using the Monolith NT.115 apparatus by incubating the labelled protein with the indicated compounds in a dose-response manner.

Row | Structure (SMILES) | affinity to the CGS [1] | activity at 50 µM (Arabidopsis thaliana) | E. coli Assay LE395 (0-5) [2] | E. coli specificity (MOA) [2] | TEV (relative to DMSO) (TEV (relative to DMSO)) | Roquette assay spray (single average) (Roquette) | Roquette assay spray (twice average) (Roquette) | remaining activity at 50 µM (Tobacco CGS [3]) | MST Tobacco (0-5) (Tobacco CGS [4])
1 | O=C(O)CSc1nc(-c2cccc(Cl)c2)no1 [5-carboxymethylthio-3-(3′-chlorophenyl)-1,2,4-oxadiazol] | highest affinity to the CGS reported so far | – | – | – | – | – | – | – | –
2 | Cc1cc(O)nc(C(=O)Nc2cccc(-c3nc(C)cc(O)n3)c2)c1 [IML-64] | – | 20% | 2 | 4 | 0.65 | 1.0 | 2.0 | 15.2% | 4
3 | COc1cccc(C(=O)Nc2cccc(-c3cn(Cc4ccccc4)nn3)c2)c1 [IML-69] | – | 22% | – | – | 0.71 | 1.0 | 2.0 | 30% | 5
4 | CCc1nc(-c2cccc(NC(=O)c3cccc(OC)c3)c2)no1 [IML-215] | – | 6% | 3 | 3 | 0.39 | 1.0 | 2.0 | 12.8% | 2
5 | CCc1noc(-c2cccc(NC(=O)c3cccc(OC)c3)c2)n1 [IML-216] | – | 20% | 3 | 5 | 0.57 | 2.0 | 2.0 | – | 2
6 | O=C(Nc1cccc(-c2csc(Nc3ccc(C(=O)O)c(O)c3)n2)c1)c1ccccc1 [IML-219] | – | – | 1 | 5 | – | – | – | 28.3% | 4
7 | COc1ccc(Cc2nc(-c3cccc(NC(=O)c4cccc(F)c4)c3)no2)cc1 [IML-220] | – | – | 3 | 5 | – | – | – | 10.8% | –
8 | CCc1nc(-c2cc(CC(=O)O)cc(NC(=O)c3cccc(OC)c3)c2)no1 [IML-228] | – | – | – | – | – | – | – | 27.4% | –
9 | CCc1nc(-c2cncc(NC(=O)c3cccc(OC)c3)c2)no1 [IML-229] | – | 10% | – | – | 0.44 | – | – | 19.6% | –
10 | CCn1cc(-c2cccc(NC(=O)c3cccc(OC)c3)c2)nn1 [IML-230] | – | 29% | – | – | – | – | 1.0 | 21.7% | –
11 | Cc1cc(O)nc(-c2cccc(NC(=O)c3c(O)cccc3F)c2)n1 [IMS-220] | – | – | 4 | 5 | – | – | – | 15.9% | 3
